Laboratory results: US6472141B2, “Kinase assays using polycations” (Caliper Technologies Corp., priority 1999, dated 2002)
{Fl-O} = fluorescein attached through an O linker; {Fluorescein} = fluorescein label

Columns and labels:
Format in all cases: binding
DNA 244 = assay: Single nucleotide substitution detection by fluorescence polarization of PNA probe; conditions: 250 nM probe, about 3 μM poly-L-Lysine, 50 mM HEPES pH 7.5, 100 mM NaCl
Description: The assay methods were employed to detect differential hybridization of a nucleic acid probe to a perfectly complementary target sequence and a target sequence incorporating a single base variation, e.g., a single nucleotide polymorphism (SNP). In particular, a fluoresceinated PNA probe having a sequence complementary to a subsequence of a target sequence was used to probe the target including the subsequence and a target in which an interior base of the subsequence was substituted for a different base.
The 5′ to 3′ sequences of the PNA probe (PNA 7637)(SEQ ID NO:4), the target DNA sequence (DNA 244) (SEQ. ID NO.5) and single base mismatch target DNA sequence (DNA 245) (SEQ. ID NO.6) were as follows:
The PNA probe 7637 was used at a final concentration of 250 nM, in a reaction volume of 400 μl. The buffer used was 50 mM HEPES pH 7.5, 100 mM NaCl. The solution also contained poly-L-Lysine at about 3 μM. One μl aliquots of the DNA targets 244 and 245 were added iteratively to the PNA solution and the fluorescence polarization (excitation 490, emission 520 nm) was recorded after the addition of each aliquot. The data from this experiment is illustrated in FIG. 22. […] As can also be seen, hybridization plateaued at approximately a […] of target sequence in the perfectly complementary example.

DNA target 192 = assay: PNA/DNA hybridization detected by fluorescence polarization, complementary target
Description: (§1) A fluorescein-labeled peptide nucleic acid molecule 202 was used in hybridization experiments with the DNA targets 192 and 182. PNAs are generally commercially available from the Applied Biosystems Division of the Perkin-Elmer Corporation (Foster City, Calif.). The sequence of these molecules is illustrated below. In the case of the PNA molecule, the given sequence illustrates the analogous sequence of a DNA molecule. The sequences of the three molecules are as follows:
(§2) DNA sequence 192 contains 13 bases (shown in bold) that are fully complementary to the PNA probe 202, whereas 182 is a non-complementary oligonucleotide.
(§3) A solution containing 1 μM of PNA 202 in 50 mM HEPES pH 7.5 was mixed with either 5 μM of 192 or 5 μM of 182. The mixtures were left at room temperature for about 10 min. and then placed in the cuvette of a fluorimeter equipped to measure fluorescence polarization. The measurements were carried out using 490 nm for excitation and 520 nm for detection of fluorescence emission. The fluorescence polarization values were recorded first in the absence and then in the presence of poly-L-Lysine hydrobromide, having a molecular weight of approximately 70-100 kD (Sigma Chemicals). The poly-L-Lysine was added from a stock solution in water (approx. 440 μM). The final concentrations of the poly Lysine were 4.4 and 8.8 μM.

DNA target 182 = assay: PNA/DNA hybridization detected by fluorescence polarization, non-complementary target
Description: as §1, §2, §3

Substance | fluorescence polarization, perfectly complementary target vs single base mismatch target (DNA 245) (DNA 244) | polarization value (DNA target 192; 202 hybrid with complementary 192, in the absence of poly-L-Lysine) | polarization value (DNA target 192; 202 hybrid with complementary 192, in the presence of poly-L-Lysine) [mP] | polarization value (DNA target 182; 1 μM 202 with 5 μM non-complementary 182, without poly-L-Lysine) [mP] | polarization value (DNA target 182; 202 with non-complementary 182, in the presence of poly-L-Lysine) [mnP]
Fluorescein-CCTGTAGCA (all peptide nucleic acid (PNA), 5' {Fluorescein}) [PNA probe 7637] | substantially higher levels of fluorescence polarization |  |  |  | 
5′Fl-O-GTCAAATACTCCA (all peptide nucleic acid (PNA), 5' {Fl-O}) [compound 202, ID NO.1] |  | about 100 mP | 229 | 86 | 140
